Laboratory results published in patent publication US12304897B2, “15-PGDH inhibitors” (KYORIN PHARMACEUTICAL CO., LTD., priority 2019, dated 2025).

target: recombinant human 15-PGDH (Homo sapiens (Human), UniProt P15428); test: 15-PGDH enzyme inhibition test; format: biochemical; conditions: 4 nM recombinant human 15-PGDH, 30 μM PGE2, 1 mM NAD+, fluorescence 340/440 nm after 60 min
Protocol: 15-PGDH Enzyme Inhibition Test
Test compounds and 4 nM recombinant human 15-PGDH (R&D systems) in 50 mM Tris-HCl (pH 8.0) containing 0.01% TWEEN 20 (Sigma) and 0.01% bovine gamma globulin (Sigma) were put into 384 Flat Bottom Black plates (Corning, 3820) and allowed to stand for 12 minutes at room temperature. Then, 30 μM PGE2 (Cayman chemical) and 1 mM NAD^+ (Sigma) were added to start reaction. Sixty minutes after the start of reaction, signals were measured at an excitation wavelength of 340 nm and a fluorescence emission wavelength of 440 nm using Synergy 2 (BioTeck). The intensity of the fluorescent signal obtained when an assay buffer was added in place of the test compounds and NAD^+ was defined as 100% and that obtained with the addition of NAD^+ was defined as 0%.

Sequence of recombinant human 15-PGDH (P15428 whole entry): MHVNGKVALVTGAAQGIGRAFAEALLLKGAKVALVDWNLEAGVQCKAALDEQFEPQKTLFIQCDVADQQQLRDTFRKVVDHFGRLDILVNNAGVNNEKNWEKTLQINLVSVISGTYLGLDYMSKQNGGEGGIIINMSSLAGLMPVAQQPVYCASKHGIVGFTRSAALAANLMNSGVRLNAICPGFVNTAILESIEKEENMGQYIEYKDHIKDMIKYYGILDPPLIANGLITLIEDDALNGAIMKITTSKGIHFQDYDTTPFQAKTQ

Row | Structure (SMILES) | IC50 [nM]
1 | CN1CCC2(CCN(c3cccc4cc(C(=O)N5CCCCC5)ccc34)CC2)C1=O [compound 79] | ≥ 10
2 | O=C(c1ccc2c(-c3ccc4c(=O)[nH]ncc4c3)cccc2c1)N1CCCC1 [compound 80] | < 3
3 | C[C@H]1CCCN(C(=O)c2ccc3c(-c4ccc5c(=O)[nH]ncc5c4)cccc3c2)C1 [compound 81] | < 3
4 | O=C1NCc2cc(-c3cccc4cc(C(=O)N5CCC(F)(F)CC5)ccc34)cnc21 [compound 82] | < 3
5 | Cc1n[nH]c(=O)c2ccc(-c3cccc4cc(C(=O)N5CCC(F)(F)CC5)ccc34)cc12 [compound 83] | < 3
6 | CC1CCN(C(=O)c2ccc3c(-c4ccc5c(=O)[nH]ncc5c4)cccc3c2)CC1 [compound 84] | < 3
7 | CN1Cc2cc(-c3c(F)ccc4cc(C(=O)N5CCC(F)(F)CC5)ccc34)cnc2C1=O [compound 85] | 3 to 10
8 | O=C(c1ccc2c(-c3cc4cc[nH]c(=O)c4cn3)c(F)ccc2c1)N1CCC(F)(F)CC1 [compound 86] | < 3
9 | O=C(c1ccc2c(-c3ccc4c(=O)[nH]ncc4c3)c(F)ccc2c1)N1CCC(F)(F)CC1 [compound 87] | < 3
10 | CN1Cc2cc(-c3cccc4cc(C(=O)N5CCC(F)(F)CC5)ccc34)ncc2C1=O [compound 88] | < 3
11 | O=C(c1ccc2cc(-c3ccc4c(=O)[nH]ccc4c3)ccc2c1)N1CCC(F)(F)CC1 [compound 89] | ≥ 10
12 | Cn1nc2n(c1=O)CCN(c1cccc3cc(C(=O)N4CCCCC4)cnc13)C2 [compound 90] | 3 to 10
13 | C[C@@H]1CCCN(C(=O)c2ccc3c(N4CCc5ncccc5C4)cccc3c2)C1 [compound 91] | < 3
14 | Cn1nc2n(c1=O)CCN(c1cccc3cc(C(=O)N4CCCC5(CC5)C4)ccc13)C2 [compound 92] | < 3
15 | O=C(c1ccc2c(N3CCn4c(nn(CC(F)F)c4=O)C3)cccc2c1)N1CCC[C@H](C(F)(F)F)C1 [compound 93] | < 3
16 | Cn1nc2n(c1=O)CCN(c1cccc3cc(C(=O)N4CCCC5CC54)ccc13)C2 (stereo not drawn) [compound 94] | < 3
17 | Cn1cnc2c1CCN(c1cccc3cc(C(=O)N4CCCCC4)ccc13)C2 [compound 95] | 3 to 10
18 | CN1CC2CN(c3cccc4cc(C(=O)N5CCCCC5)ccc34)CCN2C1=O (stereo not drawn) [compound 96] | 3 to 10
19 | COC(=O)c1ccc(-c2cccc3cc(C(=O)N4CCC(F)(F)CC4)ccc23)cc1F [compound 97] | 3 to 10

Row | Structure (SMILES) | IC50 [nM]
20 | CN1Cc2cc(-c3ccnc4cc(C(=O)N5CCCCC5)ccc34)ccc2C1=O [compound 98] | < 3
21 | CN1Cc2cc(-c3cccc4cc(C(=O)N5CCC(F)(F)CC5)cnc34)ccc2C1=O [compound 99] | 3 to 10
22 | Cc1ccc2cc(C(=O)N3CCC(F)(F)CC3)ccc2c1-c1ccc2c(=O)[nH]ncc2c1 [compound 100] | < 3
23 | O=C1NCc2nc(-c3cccc4cc(C(=O)N5CCC(F)(F)CC5)ccc34)ccc21 [compound 101] | < 3
24 | O=C(c1ccc2c(-c3cnc4c(=O)[nH]ncc4c3)c(F)ccc2c1)N1CCC(F)(F)CC1 [compound 102] | 3 to 10
25 | C[C@H]1CCCN(C(=O)c2ccc3c(N4CCn5c(nn(C)c5=O)C4)cccc3c2)C1 [compound 103] | < 3
26 | C[C@H]1CCCN(C(=O)c2ccc3c(N4CCn5c(nn(CC(F)F)c5=O)C4)cccc3c2)C1 [compound 104] | < 3
27 | O=C(c1ccc2c(N3CCc4ncccc4C3)cccc2c1)N1CCCC2(CC2)C1 [compound 105] | < 3
28 | Cn1nc2n(c1=O)CCN(c1nccc3cc(C(=O)N4CCC(F)(F)CC4)cc(F)c13)C2 [compound 106] | 3 to 10
29 | Cn1ccc2c(c1=O)CCN(c1cccc3cc(C(=O)N4CCCCC4)ccc13)C2 [compound 107] | < 3
30 | C[C@@H]1CCN(C(=O)c2ccc3c(N4CCc5ncccc5C4)cccc3c2)C1 [compound 108] | < 3
31 | O=C(c1ccc2c(-c3ccn4c(=O)[nH]nc4c3)cccc2c1)N1CCCCC1 [compound 109] | < 3
32 | O=C(c1ccc2c(-c3ccc4c(=O)[nH]ccc4c3)cccc2c1)N1CCC(F)(F)CC1 [compound 110] | < 3
33 | O=C(c1ccc2c(-c3cc4cc[nH]c(=O)c4cn3)cccc2c1)N1CCC(F)(F)CC1 [compound 111] | < 3
34 | O=C(c1ccc2c(-c3ccc4c(c3)CN(CC3(C(F)(F)F)CC3)C4=O)cccc2c1)N1CCC(F)(F)CC1 [compound 113] | 3 to 10
35 | O=C(c1ccc2c(-c3ccc4c[nH]c(=O)cc4c3)cccc2c1)N1CCC(F)(F)CC1 [compound 114] | 3 to 10
36 | Cc1c(-c2cccc3cc(C(=O)N4CCC(F)(F)CC4)ccc23)ccn2c(=O)n(C)nc12 [compound 115] | < 3
37 | Cn1ccc2cc(-c3cccc4cc(C(=O)N5CCC(F)(F)CC5)ccc34)ccc2c1=O [compound 116] | < 3
38 | Cn1ncc2cc(-c3cccc4cc(C(=O)N5CCC(F)(F)CC5)ccc34)ccc2c1=O [compound 117] | < 3

Row | Structure (SMILES) | IC50 [nM]
39 | O=C(c1ccc2c(-c3ccc4c(=O)n(CCO)ncc4c3)cccc2c1)N1CCC(F)(F)CC1 [compound 118] | < 3
40 | CC1CN(C(=O)c2ccc3c(-c4ccc5c(=O)[nH]ncc5c4)cccc3c2)CCC1(F)F (stereo not drawn) [compound 119] | < 3
41 | CN1Cc2cc(-c3cncc4cc(C(=O)N5CCC(F)(F)CC5)ccc34)ccc2C1=O [compound 120] | < 3
42 | O=C(c1ccc2c(-c3ccc4c(=O)[nH]ncc4c3)cccc2c1)N1CC2(CCC2)C1 [compound 121] | < 3
43 | O=C(c1ccc2c(-c3ccc4c(=O)[nH]ncc4c3)cccc2c1)N1C[C@H]2CCC[C@H]2C1 [compound 122] | < 3
44 | O=C(c1ccc2c(-c3ccc4c(=O)[nH]ncc4c3)cccc2c1)N1CC=CCC1 [compound 123] | < 3
45 | O=C(c1ccc2c(-c3ccc4c(=O)[nH]ncc4c3)cccc2c1)N1CCCC2CC21 (stereo not drawn) [compound 124] | < 3
46 | CC1CCN(C(=O)c2ccc3c(-c4cnc5c(c4)CN(C)C5=O)cccc3c2)CC1 [compound 125] | < 3
47 | O=C(O)c1c(F)cc(-c2cccc3cc(C(=O)N4CCC(F)(F)CC4)ccc23)cc1F [compound 126] | < 3
48 | O=C(O)c1ncc(-c2cccc3cc(C(=O)N4CCC(F)(F)CC4)ccc23)cn1 [compound 127] | < 3
49 | O=C(c1ccc2c(-c3cnc4c(=O)[nH]cnc4c3)cccc2c1)N1CCC(F)(F)CC1 [compound 128] | < 3
50 | COCn1nc2cc(-c3cccc4cc(C(=O)N5CCC(F)(F)CC5)ccc34)ccn2c1=O [compound 129] | < 3
51 | O=C(O)c1ncc(-c2cccc3cc(C(=O)N4CCC(F)(F)CC4)ccc23)cc1F [compound 130] | < 3
52 | O=C(c1cnc2c(-c3cnc4c(=O)[nH]ccc4c3)cccc2c1)N1CCC(F)(F)CC1 [compound 132] | < 3
53 | O=C(c1cnc2c(-c3cc4cc[nH]c(=O)c4cn3)cccc2c1)N1CCC(F)(F)CC1 [compound 133] | 3 to 10
54 | O=C(c1cnc2c(-c3ccc4c(=O)[nH]ccc4c3)cccc2c1)N1CCC(F)(F)CC1 [compound 134] | < 3
55 | CN1Cc2cc(-c3ccc4ccc(C(=O)N5CCC(F)(F)CC5)cc4c3)ccc2C1=O [compound 138] | < 3
56 | O=C(c1ccc2ccc(-c3ccc4c(=O)[nH]ccc4c3)cc2c1)N1CCC(F)(F)CC1 [compound 139] | < 3
57 | O=C(c1cnc2c(-c3cnc4c(=O)[nH]ncc4c3)cccc2c1)N1CCC(F)(F)CC1 [compound 140] | < 3
